Assay results from US20250376473A1, “PRMTS INHIBITOR AND USE THEREOF” (Cytosinlab Therapeutics Co., Ltd., priority 2022, published 2025).
Like-named read-outs stand apart in the source and are kept apart here.

Experiments:
HCT116 MTAP WT cells = assay: Proliferation inhibition of HCT116 cells in vitro (CellTiter Glo); type: cell-based; conditions: 6 days, 9 concentrations starting from 30 μM, read-out: Cell proliferation inhibition rate HCT116 MTAP WT IC50 (nm)
Summary of the method: (§1)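 HCT116 (MTAP WT) or CRISPR MTAP-knockout HCT116 cells (100 per well) were exposed for 6 days at 37 °C to 9-point, 3-fold dilutions starting at 30 μM (WT) or 3 μM (KO), with 0.4% DMSO final. Viability was read by CellTiter-Glo luminescence, and IC50 came from a four-parameter fit.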

[1] = tested on: HCT116-MTAP-KO cells (HCT116 MTAP null); assay: Proliferation inhibition of HCT116 MTAP-KO cells in vitro (CellTiter Glo); type: cell-based; conditions: 6 days, 9 concentrations starting from 3 μM, read-out: Cell proliferation inhibition rate HCT116 MTAP null IC50 (nm)
Summary of the method: as §1

## Cc1ncn2c1c(N)nc1ccc(C(=O)N(Cc3nc(C4=CCOCC4)cs3)CC(C)C)cc12 [Example 303]
HCT116 MTAP WT cells; Homo sapiens, HCT-116, 144 h
  IC50: 1 to 10 µM
[1]; HCT116-MTAP null, 144 h
  IC50: < 0.1 µM

## Cc1ncn2c1c(N)nc1ccc(C(=O)N(Cc3nc(-c4ncccn4)cs3)CC(C)C)cc12 [Example 305]
HCT116 MTAP WT cells; Homo sapiens, HCT-116, 144 h
  IC50: 1 to 10 µM
[1]; HCT116-MTAP null, 144 h
  IC50: < 0.1 µM

## Cc1ncn2c1c(N)nc1ccc(C(=O)N(Cc3nc(-c4ccccn4)cs3)CC(C)C)cc12 [Example 307]
HCT116 MTAP WT cells; Homo sapiens, HCT-116, 144 h
  IC50: 1 to 10 µM
[1]; HCT116-MTAP null, 144 h
  IC50: < 0.1 µM

## Cc1cccc(-c2ncc(CN(CC(C)C)C(=O)c3ccc4nc(N)c5c(C)ncn5c4c3)[nH]2)n1 [Example 308]
HCT116 MTAP WT cells; Homo sapiens, HCT-116, 144 h
  IC50: 1 to 10 µM
[1]; HCT116-MTAP null, 144 h
  IC50: 0.1 to 1 µM

## Cc1ncn2c1c(N)nc1ccc(C(=O)N(Cc3nc(C4CCOCC4)cs3)CC(C)C)cc12 [Example 310]
HCT116 MTAP WT cells; Homo sapiens, HCT-116, 144 h
  IC50: 1 to 10 µM
[1]; HCT116-MTAP null, 144 h
  IC50: < 0.1 µM

## Cc1cccc(-c2csc(CN(CC(C)C)C(=O)c3ccc4nc(N)c5c(C)ncn5c4c3)n2)n1 [Example 312]
HCT116 MTAP WT cells; Homo sapiens, HCT-116, 144 h
  IC50: 1 to 10 µM
[1]; HCT116-MTAP null, 144 h
  IC50: < 0.1 µM

## Cc1cnn2c1c(N)nc1ccc(C(=O)N(Cc3ccc(C(F)(F)F)cn3)C(C)c3ncccn3)cc12 (centres unmarked) [Example 315]
HCT116 MTAP WT cells
  IC50: < 0.1 µM
[1]
  IC50: < 0.1 µM

## Cc1ncc2c(N)nc3cc(F)c(C(=O)N(Cc4cnn(C5CC5)c4)c4ccnn4C)cc3n12 [Example 317]
HCT116 MTAP WT cells; Homo sapiens, HCT-116, 144 h
  IC50: 1 to 10 µM
[1]; HCT116-MTAP null, 144 h
  IC50: < 0.1 µM

## Cc1ncc2c(N)nc3cc(F)c(C(=O)N(Cc4cnc(C5CC5)n4C)c4ccnn4C)cc3n12 [Example 318]
HCT116 MTAP WT cells; Homo sapiens, HCT-116, 144 h
  IC50: 1 to 10 µM
[1]; HCT116-MTAP null, 144 h
  IC50: 0.1 to 1 µM

## Cc1ncc2c(N)nc3cc(F)c(C(=O)N(Cc4cnn(CC(F)(F)F)c4)c4ccnn4C)cc3n12 [Example 319]
HCT116 MTAP WT cells; Homo sapiens, HCT-116, 144 h
  IC50: 1 to 10 µM
[1]; HCT116-MTAP null, 144 h
  IC50: 0.1 to 1 µM

## COCCN(C)c1ccc(CN(C(=O)c2cc3c(cc2F)nc(N)c2cnc(C)n23)c2ccnn2C)nc1 [Example 320]
HCT116 MTAP WT cells; Homo sapiens, HCT-116, 144 h
  IC50: 1 to 10 µM
[1]; HCT116-MTAP null, 144 h
  IC50: 0.1 to 1 µM

## Cc1ncc2c(N)nc3cc(F)c(C(=O)N(Cc4cccc(C(F)(F)F)n4)c4ccnn4C)cc3n12 [Example 326]
HCT116 MTAP WT cells; Homo sapiens, HCT-116, 144 h
  IC50: 1 to 10 µM
[1]; HCT116-MTAP null, 144 h
  IC50: < 0.1 µM

## Cn1ncc2c(N)nc3cc(F)c(C(=O)N4CCC5(CCN(c6ccc(C(F)(F)F)cc6)CC5)C4)cc3c21 [Example 414]
HCT116 MTAP WT cells; Homo sapiens, HCT-116, 144 h
  IC50: 1 to 10 µM
[1]; HCT116-MTAP null, 144 h
  IC50: 0.1 to 1 µM
